Measurements reported in patent US9585380B2, “SSAT mRNA translation repression and activation” (TEMPLE UNIVERSITY—Of The Commonwealth System of Higher …, priority 2011, dated 2017).
Where a name gives a salt, the structure may show the parent alone.

Assays:
SSAT translation [1] = experiment: Reporter system: 5′ UTR lacking uORFs + SSAT coding sequence-luciferase chimeric construct in HEK293T cells; format: cell-based, human; details: wild-type SSAT-luciferase construct, luciferase 16 hours after addition, compared to untreated
Method: A chimeric construct (FIG. 15A) comprising a fragment of the 5′ UTR of SSAT lacking the uORF's (see FIG. 7), the SSAT coding sequence (see FIG. 8B), and the luciferase coding sequence was prepared. The SSAT coding sequence is linked in-frame to the luciferase coding sequence. The construct was prepared using appropriate primers and template nucleic acid, and conventional PCR methods. The construct was cloned into pLEX-MCS. To evaluate the effect of small molecules on translation of the chimeric construct, the chimeric construct was transiently transfected into HEK293T cells. The small molecule to be tested was added 24 hours after transfection of the vector. Luciferase activity was evaluated 16 hours after the addition of the small molecule using the ONE-Glo™ Luciferase Assay System (Promega, Madison, Wis.). The luminescence intensity was determined using a GloMax® luminometer (Promega).
In view of the discovery of the contribution of uORF's on translational repression of SSAT mRNA, a reporter system was developed to detect pharmacophores that can modulate SSAT translation. The reporter system is a chimeric construct comprising a 5′ UTR lacking the uORF's and the SSAT coding sequence linked in-frame to the luciferase coding sequence. (FIG. 15A). The 5′ UTR comprises 66 nucleotides of the native 5′UTR immediately upstream of the starting AUG codon.
Release of translational repression of the chimeric construct was tested in the presence of several small molecules. Release of translational repression was assessed by detection of luciferase activity. The small molecules tested were: DENSPM and three uncharacterized polyamine analogs designated polyamine analog 1; polyamine analog 2; and polyamine analog 3. Cisplatin and 5-FU were tested as negative controls.

SSAT translation [2] = experiment: DENSPM dose response curve with mutant 6 chimeric construct; format: cell-based, human; details: mutant 6 construct, DENSPM 0.08 μM to 40 μM, HEK293T
Method: The chimeric construct to be tested was transiently transfected into HEK293T cells. Twenty-four hours after transfection of the vector, DENSPM was added to the desired final concentration (ranged from 0.08 micromolar to 40 micromolar). Luciferase activity was evaluated 16 hours after the addition of DENSPM using the ONE-Glo™ Luciferase Assay System. The luminescence intensity was determined using a GloMax® luminometer (Promega). The experiment was run in triplicates to obtain error bars and evaluate reproducibility.
A dose response experiment was performed using the mutant 6 chimeric construct. Specifically, the stimulation of mutant 6 translation by ten different concentrations of DENSPM was assayed. The DENSPM concentrations ranged from 0.08 micromolar (μM) to 40 μM. The dose response curve is depicted in FIG. 20.

SSAT translation [3] = experiment: Drug screening with mutant 6 SSAT-luciferase reporter construct in transfected HEK 293T cells; format: cell-based, human; details: for inhibition at 10 µM / activation at 10 µM: Homo sapiens; for inhibition at 10 µM: 10 μM test compound, HEK 293T cells transfected with mutant 6 construct, luciferase signal twelve hours after treatment; for activation at 10 µM: 12 h
Method: The mutant 6 chimeric construct of Example 4 (A424C; A426C; FIG. 18G) cloned into pLEX MCS plasmid was utilized in drug screening as follows. HEK 293T cells (ATCC) were grown in DMEM supplemented with 10% fetal bovine serum and antibiotics. The HEK 293T cells were transfected with the mutant 6/pLEX MCS plasmid using HTS-Jetpei transfection reagent (Polyplus Transfection, Illkirch, France). Transfected HEK293T cells were incubated overnight at 37° C. After 24 hours, cells transfected cells in 96-well plates used for screening were treated with 10 μM of test compound from a compound library in DMSO. Untreated cells were used as the negative control, and cells treated with 10 μM DENSPM comprised a positive control. The luciferase signaling in each plate was independently analyzed using a Glomax Luminometer (Promega Corp.) by comparing the signals against the controls twelve hours after treatment.
The procedure of Example 6 was followed, screening for compounds that increase SSAT translation. The agents listed in Table 11 were identified as increasing SSAT translation by at least 35% over basal SSAT translation.

SSAT translation [4] = tested on: SSAT translation
nucleolin = details: HEK293T exposed to 2 mM spermine for 12 hours versus controls
Method: In addition, a sample of RNA-interacting proteins obtained from a Sepharose-streptomycin-chimeric RNA column described above was subjected to the same 2DE separation. The sample was initially concentrated to 30 μL using a Nanosep 3000 (Pall Corp) and dialyzed with 0.1×PBS for 12 h using a Slide-A-Lyzer 7K mini unit (Pierce Biotech). After separation by 2DE, the proteins were transferred to a nitrocellulose membrane using a Mini Trans Blot System (Biorad) and were Western blotted using anti-nucleolin monoclonal antibody.

[5] = procedure of Example 6 (10 μM, mutant 6 construct, HEK 293T), increase over basal SSAT translation

Compound | inhibition at 10 µM (SSAT translation [3]) | activation at 10 µM (SSAT translation [3]; [5]) | further results
CCNCCCNCCCNCCCNCC [DENSPM, N^1-N^11 diethylnorspermine] |  |  | Release of translational repression of the chimeric construct (luciferase activity) (SSAT translation [1]): relieved; Dose dependency of stimulation of translation of SSAT mRNA having CGC encoding Arg142 (SSAT translation [2]): dose dependency over at least two orders of magnitude
O=C1NCN(c2ccccc2)C12CCN(CCCC(c1ccc(F)cc1)c1ccc(F)cc1)CC2 [Fluspirilen, 8-[4,4-Bis(4-fluorphenyl)butyl]-1-phenyl-1,3,8-triazaspiro[4,5] decan-4-on] | 94.7% |  | 
CC(=O)O[C@H]1C[C@H](OC2[C@@H](O)C[C@H](O[C@H]3[C@@H](O)C[C@H](O[C@H]4CC[C@@]5(C)[C@H](CC[C@@H]6[C@@H]5C[C@@H](O)[C@]5(C)[C@@H](C7=CC(=O)OC7)CC[C@]65O)C4)O[C@@H]3C)O[C@@H]2C)O[C@H](C)[C@H]1O[C@@H]1O[C@H](CO)[C@@H](O)[C@H](O)[C@H]1O (stereo partly drawn) [Lanatoside C, (3β,5β,12β)-3-{[β-D-glucopyranosyl-(1→4)-3-O-acetyl-2,6-dideoxy-β-D-ribo-hexopyranosyl-(1→4)-2,6-dideoxy-β-D-ribo-hexopyranosyl-(1→4)-2,6-dideoxy-β-D-ribo-hexopyranosyl]oxy}-12,14-dihydroxycard-20(22)-enolide] | 91.8% |  | 
O=c1[nH]cc(F)c(=O)[nH]1 [Mutant 5-FU, 5-FU] |  |  | Release of translational repression of the chimeric construct (luciferase activity) (SSAT translation [1]): about the same as in the absence of a small molecule
COc1ccc2cc(CCC(C)=O)ccc2c1 [Nabumetone] |  | 59% | 
C=C1C(=O)O[C@H]2[C@H]1CC/C(C)=C/CC[C@@]1(C)O[C@@H]21 [Parthenolide, (1aR,7aS,10aS,10bS)-1a,5-dimethyl-8-methylene-2,3,6,7,7a,8,10a,10b-octahydrooxireno[9,10]cyclodeca [1,2-b]furan-9(1aH)-one] | 99.2% |  | 
N=C(N)c1ccc(OCCCCCOc2ccc(C(=N)N)cc2)cc1 [Pentamidine isethionate] |  | 36% | 
Nc1ccc(/N=N/c2ccccc2)c(N)n1 [Phenazopyridine hydrochloride] |  | 41% | 
CCc1ccc(CCOc2ccc(CC3SC(=O)NC3=O)cc2)nc1 (centres unmarked) [Pioglitazone] |  | 50% | 
C[C@@H]1O[C@@H](O[C@@H]2C=C3CC[C@@H]4[C@H](CC[C@]5(C)[C@@H](c6ccc(=O)oc6)CC[C@]45O)[C@@]3(C)CC2)[C@H](O)[C@H](O)[C@H]1O [Proscillaridin A, (3β)-3-[(6-deoxy-α-L-mannopyranosyl)oxy]-14-hydroxybufa-4,20,22-trienolide] | 94% |  | 
Cc1cc(/C=C/c2ccc3cc(N(C)C)ccc3[n+]2C)c(C)n1-c1ccccc1 [Pyrvinium pamoate, 2-[(E)-2-(2,5-dimethyl-1-phenylpyrrol-3-yl)ethenyl]-N,N,1-trimethylquinolin-1-ium-6-amine] | 92.5% |  | 
O=C1NCCN1CCN1CCC(c2cn(-c3ccc(F)cc3)c3ccc(Cl)cc23)CC1 [Sertindole, 1-[2-[4-[5-chloro-1-(4-fluorophenyl)-indol-3-yl]-1-piperidyl]ethyl]-imidazolidin-2-one] | 99.8% |  | 
CCCCNc1ccc(C(=O)OCCN(C)C)cc1.Cl [Tetracaïne hydrochloride] |  |  | % Increase in SSAT Translation (SSAT translation [3]; [5]): 40%
NCCNCCNCCNCCN [Tetraethylenepentamine pentahydrochloride] |  | 60% | 
CCCCCCCCCCCCCCCC[N+](C)(C)CCN(Cc1ccc(OC)cc1)c1ncccn1 [Thonzonium bromide, N-{2-[(4-Methoxybenzyl)(pyrimidin-2-yl)amino]ethyl}-N,N-dimethylhexadecan-1-aminium bromide] | 99% |  | 
c1ccc2[nH]c(-c3cscn3)nc2c1 [Tiabendazole] |  | 39% | 
CN(C)CCOc1ccc(/C(=C(/CCCl)c2ccccc2)c2ccccc2)cc1 [Toremifene, 2-{4-[(1Z)-4-chloro-1,2-diphenyl-but-1-en-1-yl]phenoxy}-N,N-dimethylethanamine] | 86.3% |  | 
Fc1ccc(C(OCCN2CCN(CCCc3ccccc3)CC2)c2ccc(F)cc2)cc1 [Vanoxerine dihydrochloride, 1-[2-[bis(4-fluorophenyl)methoxy]ethyl]-4-(3-phenylpropyl)piperazine•(HCl)2] | 96.9% |  | 
N.N.[Cl][Pt][Cl] [cisplatin, Cisplatin] |  |  | Release of translational repression of the chimeric construct (luciferase activity) (SSAT translation [1]): about the same as in the absence of a small molecule
NCCCNCCCCNCCCN [spermine] |  |  | SSAT expression (Western blot) (SSAT translation [4]; constructs with or without uORFs, presence of spermine): stimulated expression; Repression of eGFP expression by the SSAT stem loop (Loop eGFP, Western blot) (SSAT translation [4]; exogenous spermine, HEK293T): partially reversed; 55 KDa nucleolin isoform (2D-PAGE Western blot) (nucleolin): absent
